Consider one compound from patent US20190290650A1, “FORMULATIONS/COMPOSITIONS COMPRISING A BTK INHIBITOR” (Janssen Pharmaceutic NV, priority 2016, published 2019).

For data set [1] the following is noted: general statement, no test described; cited from earlier work.
Data set [2] has as its system OCI-Ly10. As to the kind of experiment: Growth inhibition of OCI-Ly10 (ABC-DLBCL) cells. It is filed as cell-based. The following applies: Homo sapiens. An excerpt:
See U.S. Pat. No. 7,711,492 and Staudt et al., Nature, Vol. 463, Jan. 7, 2010, pp. 88-92, the contents of which are incorporated by reference in their entirety.

The pEC50 is the negative decadic logarithm of the EC50, by convention in mol/L.

pEC50: −log10 of the molar value. Read-outs that look alike come from different tables or passages of the source.

As to `C=CC(=O)N1CCC[C@@H](n2nc(-c3ccc(Oc4ccccc4)cc3)c3c(N)ncnc32)C1` [Compound 1, 1-((R)-3-(4-amino-3-(4-phenoxyphenyl)-1H-pyrazolo[3,4-d]pyrimidin-1-yl)piperidin-1-yl)prop-2-en-1-one], the Water solubility entry in data set [1] is “very low water solubility”. The pEC50 in data set [2] (continuous exposure, read-out: EC50 continuous exposure (growth of OCI-Ly10)) was 8.00; in data set [2] (read-out: EC50 1 hour pulse (growth of OCI-Ly10), 1 hour pulse), 7.30.
